This passage reports IC50 results from BindingDB's records for doi:10.1021/acs.jmedchem.6b01065 (2017).

This assay deals with T1, Mineralocorticoid receptor (Homo sapiens, UniProt P08235).
T1 sequence (P08235 whole entry): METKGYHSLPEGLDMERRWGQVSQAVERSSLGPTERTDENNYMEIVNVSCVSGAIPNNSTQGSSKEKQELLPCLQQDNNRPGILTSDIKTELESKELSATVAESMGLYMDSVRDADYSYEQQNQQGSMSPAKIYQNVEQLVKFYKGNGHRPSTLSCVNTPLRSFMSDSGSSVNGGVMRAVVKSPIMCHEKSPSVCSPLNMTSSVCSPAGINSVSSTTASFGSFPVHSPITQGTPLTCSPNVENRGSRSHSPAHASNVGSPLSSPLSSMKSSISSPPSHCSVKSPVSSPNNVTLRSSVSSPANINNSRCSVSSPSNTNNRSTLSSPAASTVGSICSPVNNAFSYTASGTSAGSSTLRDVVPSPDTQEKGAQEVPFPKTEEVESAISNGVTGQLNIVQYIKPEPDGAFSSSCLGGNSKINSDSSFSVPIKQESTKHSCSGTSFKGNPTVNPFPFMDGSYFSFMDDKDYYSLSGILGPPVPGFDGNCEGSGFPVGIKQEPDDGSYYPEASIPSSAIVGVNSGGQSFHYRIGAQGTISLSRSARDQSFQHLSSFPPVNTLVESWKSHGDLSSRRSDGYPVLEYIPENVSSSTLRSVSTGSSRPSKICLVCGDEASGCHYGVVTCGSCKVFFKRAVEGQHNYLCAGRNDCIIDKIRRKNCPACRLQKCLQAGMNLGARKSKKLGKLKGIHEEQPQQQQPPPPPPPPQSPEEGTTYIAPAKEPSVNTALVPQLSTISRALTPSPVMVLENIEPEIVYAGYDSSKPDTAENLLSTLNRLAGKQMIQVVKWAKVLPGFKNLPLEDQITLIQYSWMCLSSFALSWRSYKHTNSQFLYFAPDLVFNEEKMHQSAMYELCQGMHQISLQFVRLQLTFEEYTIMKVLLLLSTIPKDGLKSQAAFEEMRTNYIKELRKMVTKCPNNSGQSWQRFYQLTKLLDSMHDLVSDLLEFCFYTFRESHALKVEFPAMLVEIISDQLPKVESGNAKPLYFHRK
Description: Antagonist activity at Gal4-fused human MR LBD (671 to 984 residues) expressed in African Green Monkey CV-1 cells assessed as inhibition of aldosterone-induced transactivation activity after 20 hrs by luciferase reporter gene assay. In general terms: Reporter assays use an easily measured gene product as a stand-in for the process of interest.

Structures are written as SMILES.

What is called IC50 is the concentration that inhibits the measured activity by half. For the molecule `Cc1c(C(=O)Nc2ccc(S(C)(=O)=O)cc2)cc(CCO)n1-c1ccc(Cl)cc1C(F)(F)F`, the IC50 worked out at 3.7 nM.
